Measured values published in patent US20230382924A1, “MODULATORS OF CYSTIC FIBROSIS TRANSMEMBRANE CONDUCTANCE REGULATOR” (VERTEX PHARMACEUTICALS INCORPORATED, priority 2020, published 2023).
Like-named read-outs stand apart in the source and are kept apart here. Each block holds one compound with its values, some of them ahead of it.

Biological target: CFTR (Homo sapiens, UniProt P13569)
Test: Membrane Potential Dye, Enteroid Assay A
Assay type: cell-based
Conditions: for EC50: read-out: Ent. A EC50
Summary of the method: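 Signal is reported as % Activity relative to a triple CFTR modulator control (3 μM + 3 μM + 300 nM acute). Read-out: membrane potential fluorescence (20 μM methyl oxonol) monitored for 15 min after chloride-free stimulation. Dye loading took 25 min at room temperature in Bath 1 buffer containing CaCC blockers.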

Chain of CFTR (P13569 with tags, fused parts or gaps DEL508-508): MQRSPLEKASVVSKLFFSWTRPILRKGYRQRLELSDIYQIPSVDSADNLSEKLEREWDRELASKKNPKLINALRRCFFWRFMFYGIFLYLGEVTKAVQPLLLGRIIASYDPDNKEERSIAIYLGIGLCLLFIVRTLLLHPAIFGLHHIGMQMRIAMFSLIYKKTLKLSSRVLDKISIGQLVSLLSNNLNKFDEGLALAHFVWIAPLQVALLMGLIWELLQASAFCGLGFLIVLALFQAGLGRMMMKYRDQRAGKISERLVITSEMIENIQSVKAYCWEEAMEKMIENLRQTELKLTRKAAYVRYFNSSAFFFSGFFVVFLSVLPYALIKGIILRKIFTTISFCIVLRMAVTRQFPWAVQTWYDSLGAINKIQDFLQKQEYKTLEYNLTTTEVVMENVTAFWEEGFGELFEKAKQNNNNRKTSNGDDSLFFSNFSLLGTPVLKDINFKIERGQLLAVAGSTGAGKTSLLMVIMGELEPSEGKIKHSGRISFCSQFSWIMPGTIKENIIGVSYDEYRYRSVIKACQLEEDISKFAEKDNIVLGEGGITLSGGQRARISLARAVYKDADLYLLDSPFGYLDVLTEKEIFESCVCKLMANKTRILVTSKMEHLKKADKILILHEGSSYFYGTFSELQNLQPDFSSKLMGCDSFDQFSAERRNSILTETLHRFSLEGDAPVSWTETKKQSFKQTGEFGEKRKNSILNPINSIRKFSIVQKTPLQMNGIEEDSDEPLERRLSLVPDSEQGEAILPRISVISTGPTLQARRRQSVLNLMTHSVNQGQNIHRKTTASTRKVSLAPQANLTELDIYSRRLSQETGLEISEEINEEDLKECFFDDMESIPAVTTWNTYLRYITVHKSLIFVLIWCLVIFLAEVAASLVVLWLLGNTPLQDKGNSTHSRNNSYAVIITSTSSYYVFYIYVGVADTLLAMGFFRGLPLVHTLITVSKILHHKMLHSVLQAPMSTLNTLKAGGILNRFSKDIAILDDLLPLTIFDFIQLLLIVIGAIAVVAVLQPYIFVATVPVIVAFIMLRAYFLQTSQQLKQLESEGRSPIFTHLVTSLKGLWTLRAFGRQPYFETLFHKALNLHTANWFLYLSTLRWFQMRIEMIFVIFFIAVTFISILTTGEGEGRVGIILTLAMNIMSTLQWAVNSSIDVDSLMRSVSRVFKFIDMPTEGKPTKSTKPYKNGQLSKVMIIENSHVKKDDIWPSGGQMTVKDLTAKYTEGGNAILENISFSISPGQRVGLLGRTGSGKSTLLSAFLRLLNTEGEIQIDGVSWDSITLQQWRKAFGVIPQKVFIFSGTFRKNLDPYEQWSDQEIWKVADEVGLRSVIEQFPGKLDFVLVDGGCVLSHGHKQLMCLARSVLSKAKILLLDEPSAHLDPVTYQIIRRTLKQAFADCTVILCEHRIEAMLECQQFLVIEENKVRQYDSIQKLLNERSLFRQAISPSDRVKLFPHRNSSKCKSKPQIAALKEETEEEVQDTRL

SMILES: Cc1cccc(C)c1-c1cc2nc(n1)NS(=O)(=O)c1cccc(c1)C(=O)N[C@@H](CC(C)(C)C)[C@H](C)O2 [Compound 130]
Ent. A Max Activity (Table 9): +++ (+++ is >60%) | EC50 (Table 9): < 1000 nM

SMILES: CCCC1(CCC)COc2cc(-c3c(C)cccc3C)nc(n2)NS(=O)(=O)c2cccc(c2)C(=O)N1 [Compound 184]
Ent. A Max Activity (Table 9): +++ (+++ is >60%) | EC50 (Table 9): < 1000 nM

SMILES: CC(C)C[C@@H]1COc2cc(-c3ncccn3)nc(n2)NS(=O)(=O)c2cccc(c2)C(=O)N1 [Compound 178]
Ent. A Max Activity (Table 9): + (+ is <30%)

SMILES: Cc1cccc(C)c1-c1cc2nc(n1)NS(=O)(=O)c1cccc(c1)C(=O)NCC(c1ccc(Br)cc1)O2 (single isomer, unassigned) [Compound 20, 10-(4-bromophenyl)-6-(2,6-dimethylphenyl)-2,2-dioxo-9-oxa-2λ^6-thia-3,5,12,19-tetrazatricyclo[12.3.1.14,8]nonadeca-1(18),4(19),5,7,14,16-hexaen-13-one]
EC50 (Table 8): < 1000 nM

SMILES: CCC(CC)(CC)c1ccc(C2CNC(=O)c3cccc(c3)S(=O)(=O)Nc3nc(cc(-c4c(C)cccc4C)n3)O2)cc1 (stereo not shown) [Compound 266]
Ent. A Max Activity (Table 9): ++ (++ is 30-60%) | EC50 (Table 9): < 1000 nM

SMILES: Cc1cccc(C)c1-c1cc2nc(n1)NS(=O)(=O)c1cccc(c1)C(=O)NCC(c1ccccn1)O2 (stereo not shown) [Compound 234]
Ent. A Max Activity (Table 8): + (+ is <30%)

SMILES: Cc1cccc(C)c1-c1cc2nc(n1)NS(=O)(=O)c1cccc(c1)C(=O)NCC(c1ccc(C3(C)CC3)cc1)O2 (stereo not shown) [Compound 265]
Ent. A Max Activity (Table 9): ++ (++ is 30-60%) | EC50 (Table 9): < 1000 nM

SMILES: Cc1cccc(C)c1-c1cc2nc(n1)NS(=O)(=O)c1cccc(c1)C(=O)NCC(CC(C)C)O2 (stereo not shown) [Compound 255]
EC50 (Table 8): 1000 to 3000 nM

SMILES: Cc1cccc(C)c1-c1cc2nc(n1)NS(=O)(=O)c1cccc(c1)C(=O)N[C@@H](C)[C@H](c1ccc(C(C)(C)C)cc1)O2 [Compound 228]
Ent. A Max Activity (Table 9): + (+ is <30%) | EC50 (Table 9): < 1000 nM

SMILES: Cc1cccc(C)c1-c1cc2nc(n1)NS(=O)(=O)c1cccc(c1)CNC1C[C@@H](CN(C(=O)OCc3ccccc3)C1)O2 (stereo in doubt) [Compound 193]
Ent. A Max Activity (Enteroid Assay A): ++ (++ is 30-60%) | EC50 (Enteroid Assay A): 1000 to 3000 nM

SMILES: Cc1cccc(C)c1-c1cc2nc(n1)NS(=O)(=O)c1cccc(c1)C(=O)NCC(c1ccc(CC3(C(F)(F)F)CC3)cc1)O2 (stereo not shown) [Compound 147]
Ent. A Max Activity (Table 9): +++ (+++ is >60%) | EC50 (Table 9): < 1000 nM

SMILES: Cc1cccc(C)c1-c1cc2nc(n1)NS(=O)(=O)c1cc(cc(C3CCOCC3)c1)C(=O)N[C@H](CC(C)C)CO2 [Compound 138]
Ent. A Max Activity (Table 8): + (+ is <30%)

SMILES: CC(C)C[C@@H]1COc2cc(-c3ccccc3-c3ccccc3)nc(n2)NS(=O)(=O)c2cccc(c2)C(=O)N1 [Compound 101, (11R)-11-Isobutyl-2,2-dioxo-6-(2-phenylphenyl)-9-oxa-2λ^6-thia-3,5,12,19-tetrazatricyclo[12.3.1.14,8]nonadeca-1(18),4,6,8(19),14,16-hexaen-13-one]
Ent. A Max Activity (Table 9): +++ (+++ is >60%) | EC50 (Table 9): < 1000 nM

SMILES: Cc1cccc(C)c1-c1cc2nc(n1)NS(=O)(=O)c1cccc(c1)C(=O)NCC(c1ccc(C#N)cc1)O2 (stereo not shown) [Compound 250]
Ent. A Max Activity (Table 8): +++ (+++ is >60%) | EC50 (Table 8): < 1000 nM

SMILES: Cc1cccc(C)c1-c1cc2nc(n1)NS(=O)(=O)c1cccc(c1)C(=O)NCC(c1ccc(P(C)(C)=O)cc1)O2 (stereo not shown) [Compound 21, 6-(2,6-Dimethylphenyl)-10-(4-dimethylphosphorylphenyl)-2,2-dioxo-9-oxa-2λ^6-thia-3,5,12,19-tetrazatricyclo[12.3.1.14,8]nonadeca-1(18),4(19),5,7,14,16-hexaen-13-one]
Ent. A Max Activity (Table 8): + (+ is <30%)

SMILES: Cc1cccc(C)c1-c1cc2nc(n1)NS(=O)(=O)c1cc(cc(-c3ccc(C(C)(C)C)cc3)c1)C(=O)N[C@H](CC(C)C)CO2 [Compound 135]
Ent. A Max Activity (Table 8): + (+ is <30%)

SMILES: Cc1cccc(C)c1-c1cc2nc(n1)NS(=O)(=O)c1cccc(c1)C(=O)N[C@@H](CC(C)C)CCO2 [Compound 224]
Ent. A Max Activity (Table 9): ++ (++ is 30-60%) | EC50 (Table 9): 1000 to 3000 nM

SMILES: CC(C)C[C@@H]1COc2cc(-c3ccccc3C3CC3)nc(n2)NS(=O)(=O)c2cccc(c2)C(=O)N1 [Compound 105, (11R)-6-(2-cyclopropylphenyl)-11-(2-methylpropyl)-9-oxa-2λ^6-thia-3,5,12,19-tetraazatricyclo[12.3.1.14,8]nonadeca-1(17),4(19),5,7,14(18),15-hexaene-2,2,13-trione]
Ent. A Max Activity (Enteroid Assay A): +++ (+++ is >600%) | EC50 (Enteroid Assay A): < 1000 nM

SMILES: Cc1cccc(C)c1-c1cc2nc(n1)NS(=O)(=O)c1cccc(c1)C(=O)NCC1(CCN(Cc3sccc3Oc3ccccc3)CC1)CO2 [Compound 83, 6-(2,6-Dimethylphenyl)-2,2-dioxo-1′-[(3-phenoxy-2-thienyl)methyl]spiro[9-oxa-2λ^6-thia-3,5,13,20-tetrazatricyclo[13.3.1.14,8]icosa-1(19),4(20),5,7,15,17-hexaene-11,4′-piperidine]-14-one]
Ent. A Max Activity (Enteroid Assay A): +++ (+++ is >600%) | EC50 (Enteroid Assay A): < 1000 nM

SMILES: Cc1cccc(C)c1-c1cc2nc(n1)NS(=O)(=O)c1cccc(c1)C(=O)NCC(c1ccc(C3CCC3)cc1)O2 (single isomer, unassigned) [Compound 14, 10-(4-cyclobutylphenyl)-6-(2,6-dimethylphenyl)-2,2-dioxo-9-oxa-2λ^6-thia-3,5,12,19-tetrazatricyclo[12.3.1.14,8]nonadeca-1(18),4(19),5,7,14,16-hexaen-13-one]
Ent. A Max Activity (Table 9): +++ (+++ is >60%) | EC50 (Table 9): < 1000 nM

SMILES: Cc1cccc(C)c1-c1cc2nc(n1)NS(=O)(=O)c1cccc(c1)C(=O)NCC(C1CCN(C(=O)OC(C)(C)C)CC1)O2 (stereo not shown) [Compound 248]
Ent. A Max Activity (Table 8): +++ (+++ is >60%) | EC50 (Table 8): < 1000 nM

SMILES: Cc1cccc(C)c1-c1cc2nc(n1)NS(=O)(=O)c1cccc(c1)C(=O)NC1CC(CN(CCC(C)(C)C)C1)O2 (single isomer, unassigned) [Compound 80, 5-(3,3-Dimethylbutyl)-19-(2,6-dimethylphenyl)-2-oxa-15λ^6-thia-5,8,16,18,21-pentaazatetracyclo[15.3.1.13,7.110,14]tricosa-1(20),10,12,14(22),17(21),18-hexaene-9,15,15-trione]
Ent. A Max Activity (Enteroid Assay A): ++ (++ is 30-60%) | EC50 (Enteroid Assay A): 1000 to 3000 nM

SMILES: Cc1ccccc1[C@@H]1Oc2cc(-c3c(C)cccc3C)nc(n2)NS(=O)(=O)c2cccc(c2)C(=O)N[C@@H]1CC(C)C [Compound 162]
EC50 (Enteroid Assay A): < 1000 nM

Other lines, results leading:

Ent. A Max Activity (Enteroid Assay A): ++ (++ is 30-60%)
SMILES: CCCC(NC(=O)OC(C)(C)C)C(=O)N1CCC2(CC1)CNC(=O)c1cccc(c1)S(=O)(=O)Nc1nc(cc(-c3c(C)cccc3C)n1)OC2 (stereo not shown) [Compound 449]

Ent. A Max Activity (Enteroid Assay A): ++ (++ is 30-60%) | EC50 (Enteroid Assay A): < 1000 nM
SMILES: CC(C)C[C@@H]1COc2cc(C3=CC(C)CC3(C)C)nc(n2)NS(=O)(=O)c2cccc(c2)C(=O)N1 (stereo partly shown) [Compound 320]

Ent. A Max Activity (Enteroid Assay A): ++ (++ is 30-60%) | EC50 (Enteroid Assay A): 3000 to 30000 nM
SMILES: Cc1cccc(C)c1-c1cc2nc(n1)NS(=O)(=O)c1cccc(c1)C(=O)NCC1(CCN(Cc3ccc(NC(=O)OC(C)(C)C)nc3)CC1)CO2 [Compound 433]

Ent. A Max Activity (Enteroid Assay A): ++ (++ is 30-60%) | EC50 (Enteroid Assay A): 1000 to 3000 nM
SMILES: Cc1cccc(C)c1-c1cc2nc(n1)NS(=O)(=O)c1cccc(c1)C(=O)NCC1(CCN(C(=O)CO[C@@H]3C[C@H](C)CC[C@H]3C(C)C)CC1)CO2 [Compound 468]

Ent. A Max Activity (Table 8): + (+ is <30%)
SMILES: Cc1cccc(C)c1-c1cc2nc(n1)NS(=O)(=O)c1cccc(c1)C(=O)NC[C@@H](CN1CCCCC1)O2 (stereo in doubt) [Compound 409]

Ent. A Max Activity (Table 8): +++ (+++ is >60%) | EC50 (Table 8): < 1000 nM
SMILES: CCC(CC)[C@@H]1COc2cc(-c3c(C)cccc3C)nc(n2)NS(=O)(=O)c2cccc(c2)C(=O)N1 [Compound 386]

Ent. A Max Activity (Enteroid Assay A): +++ (+++ is >600%) | EC50 (Enteroid Assay A): 1000 to 3000 nM
SMILES: Cc1cccc(C)c1-c1cc2nc(n1)NS(=O)(=O)c1cccc(c1)C(=O)NCC(CC(C)C)O2 (stereo not shown) [Compound 490]

Ent. A Max Activity (Enteroid Assay A): ++ (++ is 30-60%)
SMILES: Cc1cccc(C)c1-c1cc2nc(n1)NS(=O)(=O)c1cccc(c1)C(=O)NCC1(CCN(C(=O)c3cc4c(cc3O)CCCC4)CC1)CO2 [Compound 462]

Ent. A Max Activity (Table 8): + (+ is <30%)
SMILES: CC(C)C[C@@H]1COc2cc(-n3ccc(OCCC4(C(F)(F)F)CC4)n3)nc(n2)NS(=O)(=O)c2cccc(c2)C(=O)N1 [Compound 306]

Ent. A Max Activity (Enteroid Assay A): ++ (++ is 30-60%) | EC50 (Enteroid Assay A): 1000 to 3000 nM
SMILES: Cc1cccc(C)c1-c1cc2nc(n1)NS(=O)(=O)c1cccc(c1)C(=O)NC(C(C)C)CO2 (stereo not shown) [Compound 355]

Ent. A Max Activity (Enteroid Assay A): ++ (++ is 30-60%) | EC50 (Enteroid Assay A): 3000 to 30000 nM
SMILES: Cc1cccc(C)c1-c1cc2nc(n1)NS(=O)(=O)c1cccc(c1)C(=O)NCC1(CCN(C(=O)C(CC(C)C)NC(=O)OC(C)(C)C)CC1)CO2 (stereo not shown) [Compound 450]

Ent. A Max Activity (Enteroid Assay A): +++ (+++ is >600%) | EC50 (Enteroid Assay A): < 1000 nM
SMILES: Cc1cccc(C)c1-c1cc2nc(n1)NS(=O)(=O)c1cccc(c1)C(=O)NCC1(CCN(CCC(C)CC(C)(C)C)CC1)CO2 (stereo not shown) [Compound 441]

Ent. A Max Activity (Table 8): + (+ is <30%) | EC50 (Table 8): 3000 to 30000 nM
SMILES: Cc1cccc(C)c1-c1cc2nc(n1)NS(=O)(=O)c1cccc(c1)C(=O)NC[C@H](c1ccc(C(F)(F)F)cc1)O2 (stereo in doubt) [Compound 402]

Ent. A Max Activity (Enteroid Assay A): ++ (++ is 30-60%)
SMILES: Cc1nc(C(F)(F)F)c(C(=O)N2CCC3(CC2)CNC(=O)c2cccc(c2)S(=O)(=O)Nc2nc(cc(-c4c(C)cccc4C)n2)OC3)s1 [Compound 460]

Ent. A Max Activity (Table 9): + (+ is <30%) | EC50 (Table 9): 3000 to 30000 nM
SMILES: Cc1cccc(C)c1-c1cc2nc(n1)NS(=O)(=O)c1cccc(c1)C(=O)NCC(c1ccc(C34CC(C3)C4)cc1)O2 (stereo not shown) [Compound 397]

EC50 (Enteroid Assay A): 1000 to 3000 nM
SMILES: Cc1cccc(C)c1-c1cc2nc(n1)NS(=O)(=O)c1cccc(c1)C(=O)NC1CCCC[C@@H]1O2 (stereo in doubt) [Compound 485]

Ent. A Max Activity (Table 8): + (+ is <30%)
SMILES: CC(C)C[C@@H]1COc2cc(-n3nccc3C(C)C)nc(n2)NS(=O)(=O)c2cccc(c2)C(=O)N1 [Compound 307]

Ent. A Max Activity (Enteroid Assay A): ++ (++ is 30-60%) | EC50 (Enteroid Assay A): 1000 to 3000 nM
SMILES: CCC1CC=C(c2cc3nc(n2)NS(=O)(=O)c2cccc(c2)C(=O)N[C@H](CC(C)C)CO3)CC1 (stereo partly shown) [Compound 322]
